This is an account of results in patent US20260183306A1, “Methods for Treating Respiratory Diseases Characterized by Mucus Hypersecretion” (The Board of Trustees of the Leland Stanford Junior …, priority 2022, published 2026).

For series [1] the following is noted: cited from earlier work.
Series [2] has as its system primary nasal epithelial cells from two CF donors (F508del homozygotes). The experiment in a line: Ciliary beat frequency (CBF) in CF nasal epithelial cultures, MK-0752 and Elexacaftor. Format: cell-based, human. On the procedure: Primary nasal epithelial cells from two CF donors (F508del homozygotes) were grown in filter inserts as in previous experiments to full differentiation. We evaluated whether lower doses of both MK-0752 and Elexacftor than doses used in the previous experiments could elicit a positive response in CBF as evidence for synergy between the two drugs. During differentiation, cultures received treatment with vehicle control or the GSI MK-0752 at 125 nM, or triple combination modulator combination with Elexacaftor at 100 nM, or both treatments combined. Once cells reached maturity, the apical surface was washed gently with PBS and then placed on an inverted microscope on a heated stage at 37° C. High speed video recording at 200× of the ciliated surface was performed to estimate the CBF in several regions. Average CBF in Hz for each condition are represented by the bars in FIG. 30.

The conditions of series [3]: cited from earlier work. The source holds these as a separate data set.
Series [4] deals with primary nasal epithelial cells from two CF donors (F508del homozygote). Description: Airway surface liquid (ASL) reabsorption in CF HNEC cultures. In kind it is cell-based, human. The conditions noted are these: p<0.001 vs control. How it is done:
Primary nasal epithelial cells from two CF donors (F508del homozygote) were grown in filter inserts as in previous experiments to full differentiation. During differentiation they received treatment with vehicle control (blue), triple combination CFTR modulator (Elexcaftor/Tezacaftor/Ivacaftor; orange), the GSI semagacestat (LY-45139) (gray) or both treatments combined (yellow). Once they reached maturity, the apical surface was washed gently with PBS and then 30 μl of PBS were added to the surface. The filter inserts were then weighed on a precision scale at times 0, 12 and 24 hours after fluid addition. The change in weight over time was taken as a surrogate for fluid reabsorption.

Series [5] has as its system Alzheimer's mouse models. The conditions noted are these: 30 mg/kg daily for five months or 100 mg/kg daily for 12 days; cited from earlier work.
In series [6] the test system is primary nasal epithelial cells from two CF donors (F508del homozygotes). The experiment in a line: Mucus transport by latex bead movement on CF HNEC cultures. In kind it is cell-based, human. On the procedure: Primary nasal epithelial cells from two CF donors (F508del homozygotes) were grown in duplicate as in previous experiments to full differentiation under treatment with vehicle control, triple combination CFTR modulator (Elexcaftor/Tezacaftor/Ivacaftor), the GSI semagacestat (LY-45139) or both treatments combined. Once mature, a 20 μl suspension of 2 μm latex beads was added to the apical surface and the insert cut for placement under a microscope fitted with a high-speed video recorder. Images were then acquired at 1000 fps to track bead movement as a reflection of mucus transport by the ciliated surface and distance travelled by individual beads estimated.

The nature of series [7]: Body weight and tolerability in GSI treated mice (surrogate of GI toxicity). Format: in vivo.
Protocol: In the second experiment, vehicle and semagacestat were administered once daily for 5 consecutive days per week for three weeks, with a semagacestat dose of 1 mg/kg. […] As a surrogate measure of GI toxicity, we monitored body weight throughout the experiment. Body weight was measured on Days 1, 9, 24 and 30, and mice were sacrificed on day 31.
Mouse husbandry and GSI treatment in mice. […] 10-40 week age-matched male and female Foxj1/EGFP mice were treated with LY450139 or vehicle control by intraperitoneal (IF) administration. In the first experiment, 0.1 mg/kg, or 1 mg/kg LY450139, 10 mg/kg DAPT or saline vehicle was administered twice daily for three consecutive days, then the mice were sacrificed on day 7. In the second experiment, 1 mg/kg LY450139 or saline vehicle was administered once daily for five consecutive days per week for three weeks, then the mice were sacrificed on day 30. Body weight was monitored as a surrogate measure of GI toxicity.
The test system of series [8] is healthy and CF primary human airway epithelial cultures. Description: SEM of cilia structure in healthy and CF primary human airway epithelial cultures. Format: cell-based. How it is done: Wholemount immunofluorescence and scanning electron microscopy of HNEC cultures. For wholemount immunofluorescence, HBECs were fixed in −20° C. methanol or 4% paraformaldehyde for 10 min as previously described (43). Transwell filters were cut out of the plastic supports and placed in a humidity chamber for staining. Samples were blocked in 10% normal horse serum and 0.1% Triton X-100 in PBS and incubated with primary antibodies for 1-2 h, then with Alexa dye conjugated secondary antibodies (Thermo Fisher) for 30 min at room temperature. Filters were mounted in Mowiol mounting medium containing 2% N-propyl gallate (Sigma). Samples were imaged with a Leica SP8 confocal microscope. For antibodies and fixation conditions, see Table 2. For SEM, Transwell filters were fixed in 2% glutaraldehyde, 4% paraformaldehyde in 0.1 M NaCacodylate buffer, pH 7.4 at 4° C. overnight. Samples were osmicated, dehydrated, dried with a Tousimis Autosamdri-815 critical point dryer. Samples were mounted luminal side up, sputter coated with 100 Å layer of Au/Pd. Images were acquired with a Hitachi S-3400N VP-SEM microscope operated at 10−15 kV, with a working distance of 7−10 mm and using secondary electron detection.

The structures appear in SMILES notation. Read-outs that look alike come from different tables or passages of the source.

Take `O=C(O)CC[C@H]1CC[C@@](c2cc(F)ccc2F)(S(=O)(=O)c2ccc(Cl)cc2)CC1` [MK-0752]: the “most common drug-related toxicities” value in series [1] (103 patients, 450 to 4,200 mg on daily, intermittent or weekly schedules) is “diarrhea, nausea, vomiting, and fatigue”. Also, the “tolerability of weekly dosing” value in series [1] (human, in vivo) is “generally well-tolerated”. Further, the “increase in CBF expected by the simple addition of the independent effects” value in series [2] (MK-0752 125 nM plus triple combination with Elexacaftor 100 nM) is 28%. Also, the “increase in CBF by the combined treatments versus either drug alone” value in series [2] (MK-0752 125 nM plus triple combination with Elexacaftor 100 nM, p<0.005) is given as “larger than with either drug alone”. Moreover, the “increase in CBF by the combined treatments” value in series [2] (MK-0752 125 nM plus triple combination with Elexacaftor 100 nM, p=0.049 vs expected) amounted to 36%. For the same compound, the “ciliary beat frequency (CBF) versus control” value in series [2] (MK-0752 at 125 nM during differentiation, p<0.001 vs control) is reported as “significant effect in increasing the CBF”.
Take `CC(C)[C@H](O)C(=O)N[C@@H](C)C(=O)N[C@@H]1C(=O)N(C)CCc2ccccc21` [semagacestat, (2S)-2-hydroxy-3-methyl-N-[(1 S)-1-methyl-2-oxo-2-[[(1 S)-2,3,4,5-tetrahydro-3-methyl-2-oxo-1H-3-benzazepin-1-yl]amino]ethyl]-butamide]: the adverse events entry in series [3] (Phase I, 5 mg, 20 mg or 40 mg daily for 14 days) was “adverse events similar to placebo”; in series [3] (Phase III trial in Alzheimer's Disease), “more adverse events, including skin cancers and infections”. The “subjects reporting adverse events that may have been drug related” value in series [3] (Phase I, 50 mg daily dose) is given as 2 of 7. In addition, the cognitive status result in series [3] (Phase III trial in Alzheimer's Disease, 100 mg and 140 mg daily) is on record as “did not improve cognitive status”. Further, the cognitive ability result in series [3] (Phase III trial in Alzheimer's Disease, patients on the highest dose) is on record as “significant worsening of cognitive ability”. In series [3] (human trials, 50 mg for 2 weeks or 40 mg for 6 weeks daily), the “tolerability of lower doses” value is recorded as “well-tolerated”. Besides, the “tolerability of higher doses” value in series [3] (human trials, 100 mg and 140 mg daily for 14 weeks) is given as “not well tolerated chiefly due to GI related adverse events”. Moreover, the “ASL fluid reabsorption versus control” value in series [4] (Elexcaftor/Tezacaftor/Ivacaftor and semagacestat combined) was “significantly decreased reabsorption”; in series [4] (single treatment during differentiation, 30 μl PBS, weight change) it was “significantly decreased reabsorption”. In addition, the “efficacy in Alzheimer's mouse models” value in series [5] is “demonstrated efficacy”. Further, the “bead movement (mucus transport) of the combination” value in series [6] (combination of ETI and semagacestat, p<0.05 against either treatment alone) is reported as “Remarkable increases in transport”. Further, in series [6] (single treatment, p<0.01 vs control), the “bead movement (mucus transport) versus control” value is reported as “Significant increases in movement”. Also, the “body weight versus vehicle controls” value in series [7] (1 mg/kg IP once daily 5 days per week for three weeks, days 9, 24 and 30) is on record as “no significant difference”. Also, the “mortality, ill effects, adverse events, tolerability” value in series [7] (1 mg/kg IP once daily 5 days per week for three weeks, listed as LY450139) was “well tolerated”. Further, in series [7] (1 mg/kg administered for three days), the apparent toxicity entry was “without any apparent toxicity”.
As to `C[C@H](NC(=O)Cc1cc(F)cc(F)c1)C(=O)NC(C(=O)OC(C)(C)C)c1ccccc1` (stereo partly shown) [DAPT], the “structure of multiciliated cells / cilia” value in series [8] was “indistinguishable from those in untreated healthy cultures”.
